The target of test [1] is Vascular endothelial growth factor receptor 2 (Homo sapiens, UniProt P35968). The format is functional.
In test [2] the target is T1, Alpha-2A adrenergic receptor (Homo sapiens, UniProt P08913).
T1 sequence (P08913 whole entry): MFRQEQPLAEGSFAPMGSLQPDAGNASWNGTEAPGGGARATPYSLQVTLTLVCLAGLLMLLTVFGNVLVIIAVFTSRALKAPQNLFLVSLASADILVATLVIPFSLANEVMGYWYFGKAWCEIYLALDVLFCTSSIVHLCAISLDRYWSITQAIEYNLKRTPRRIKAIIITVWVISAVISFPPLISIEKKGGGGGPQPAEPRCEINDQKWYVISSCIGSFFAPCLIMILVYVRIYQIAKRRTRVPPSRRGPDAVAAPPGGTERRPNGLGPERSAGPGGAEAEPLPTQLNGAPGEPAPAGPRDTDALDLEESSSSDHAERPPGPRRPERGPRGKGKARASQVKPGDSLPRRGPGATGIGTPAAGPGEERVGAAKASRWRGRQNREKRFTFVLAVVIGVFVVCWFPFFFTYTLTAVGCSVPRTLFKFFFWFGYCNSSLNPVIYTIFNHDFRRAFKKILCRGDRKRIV

A further test has as its target Acetylcholinesterase (Homo sapiens, UniProt P22303). It is filed as functional.
A further test deals with T2, B2 bradykinin receptor (Homo sapiens, UniProt P30411).
T2 sequence (P30411 whole entry): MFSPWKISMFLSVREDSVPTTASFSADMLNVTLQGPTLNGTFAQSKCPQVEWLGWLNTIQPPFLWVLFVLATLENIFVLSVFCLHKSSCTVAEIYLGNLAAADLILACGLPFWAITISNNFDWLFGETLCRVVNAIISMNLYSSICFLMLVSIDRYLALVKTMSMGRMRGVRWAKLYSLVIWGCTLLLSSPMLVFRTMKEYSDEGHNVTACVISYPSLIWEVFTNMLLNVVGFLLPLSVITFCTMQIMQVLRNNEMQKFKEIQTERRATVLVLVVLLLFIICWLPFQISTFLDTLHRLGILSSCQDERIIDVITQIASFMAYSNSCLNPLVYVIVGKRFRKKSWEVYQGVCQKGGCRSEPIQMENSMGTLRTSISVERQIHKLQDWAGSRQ

Test [3] has as its target T3, Alpha-1A adrenergic receptor (Homo sapiens, UniProt P35348).
T3 sequence (P35348 whole entry): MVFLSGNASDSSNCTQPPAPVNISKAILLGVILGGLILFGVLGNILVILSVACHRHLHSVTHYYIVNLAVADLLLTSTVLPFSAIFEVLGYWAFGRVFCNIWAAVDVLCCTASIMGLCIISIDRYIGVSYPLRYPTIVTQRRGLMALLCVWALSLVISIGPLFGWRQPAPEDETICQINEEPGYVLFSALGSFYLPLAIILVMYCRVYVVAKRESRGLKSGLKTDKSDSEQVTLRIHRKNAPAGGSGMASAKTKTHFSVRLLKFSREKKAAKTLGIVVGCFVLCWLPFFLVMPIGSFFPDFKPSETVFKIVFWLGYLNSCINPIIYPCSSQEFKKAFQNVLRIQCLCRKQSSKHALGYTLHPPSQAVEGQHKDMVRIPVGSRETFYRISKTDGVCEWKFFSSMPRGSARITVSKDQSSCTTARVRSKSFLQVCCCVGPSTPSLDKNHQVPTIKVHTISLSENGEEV
It is filed as functional, cell-based.

The target of another test is T4, Progesterone receptor (Homo sapiens, UniProt P06401).
T4 sequence (P06401 whole entry): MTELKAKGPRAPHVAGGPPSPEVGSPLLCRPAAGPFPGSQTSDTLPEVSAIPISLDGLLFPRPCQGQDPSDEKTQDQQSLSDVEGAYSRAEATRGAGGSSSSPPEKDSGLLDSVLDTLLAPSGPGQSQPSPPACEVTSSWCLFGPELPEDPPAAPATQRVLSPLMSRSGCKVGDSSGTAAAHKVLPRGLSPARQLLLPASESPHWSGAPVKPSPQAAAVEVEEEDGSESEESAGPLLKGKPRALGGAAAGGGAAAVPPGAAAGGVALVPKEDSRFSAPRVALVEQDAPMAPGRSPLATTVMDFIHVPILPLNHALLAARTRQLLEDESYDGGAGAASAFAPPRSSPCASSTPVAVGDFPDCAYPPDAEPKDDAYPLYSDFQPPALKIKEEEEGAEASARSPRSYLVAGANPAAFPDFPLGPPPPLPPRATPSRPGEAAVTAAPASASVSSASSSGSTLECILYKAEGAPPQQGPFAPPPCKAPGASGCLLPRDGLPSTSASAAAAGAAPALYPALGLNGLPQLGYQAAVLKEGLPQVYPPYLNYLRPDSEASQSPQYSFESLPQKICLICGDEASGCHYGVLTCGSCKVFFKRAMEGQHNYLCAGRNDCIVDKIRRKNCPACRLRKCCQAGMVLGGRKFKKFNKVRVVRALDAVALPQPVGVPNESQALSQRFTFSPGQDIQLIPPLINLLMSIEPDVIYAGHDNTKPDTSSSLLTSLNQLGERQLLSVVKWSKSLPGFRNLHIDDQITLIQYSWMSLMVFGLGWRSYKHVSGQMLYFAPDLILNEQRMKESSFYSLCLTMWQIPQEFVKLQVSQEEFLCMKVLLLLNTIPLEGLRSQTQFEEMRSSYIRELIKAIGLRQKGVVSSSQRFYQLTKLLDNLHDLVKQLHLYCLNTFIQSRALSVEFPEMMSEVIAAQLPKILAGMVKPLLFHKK
It is filed as functional.

What is called AC50 is the concentration giving half of the maximal activity seen. A high value points to weaker potency.
Note: assay procedure not described here.

Chain of Acetylcholinesterase (P22303 whole entry): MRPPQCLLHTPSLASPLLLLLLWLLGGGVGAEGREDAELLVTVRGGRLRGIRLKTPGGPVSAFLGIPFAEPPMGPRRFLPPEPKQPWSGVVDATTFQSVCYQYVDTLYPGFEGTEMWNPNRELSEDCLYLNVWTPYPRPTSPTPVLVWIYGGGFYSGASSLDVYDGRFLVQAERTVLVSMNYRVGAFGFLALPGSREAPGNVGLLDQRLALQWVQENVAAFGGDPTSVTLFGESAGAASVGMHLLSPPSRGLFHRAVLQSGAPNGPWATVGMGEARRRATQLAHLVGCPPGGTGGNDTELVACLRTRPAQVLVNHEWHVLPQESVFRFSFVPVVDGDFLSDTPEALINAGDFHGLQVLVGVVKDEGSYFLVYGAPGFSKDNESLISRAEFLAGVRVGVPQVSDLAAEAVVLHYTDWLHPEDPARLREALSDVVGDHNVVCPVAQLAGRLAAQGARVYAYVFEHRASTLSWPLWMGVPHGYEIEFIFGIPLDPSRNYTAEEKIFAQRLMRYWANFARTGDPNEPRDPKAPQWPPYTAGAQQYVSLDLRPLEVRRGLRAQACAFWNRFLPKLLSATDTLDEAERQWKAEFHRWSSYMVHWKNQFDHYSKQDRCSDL
Chain of Vascular endothelial growth factor receptor 2 (P35968 whole entry): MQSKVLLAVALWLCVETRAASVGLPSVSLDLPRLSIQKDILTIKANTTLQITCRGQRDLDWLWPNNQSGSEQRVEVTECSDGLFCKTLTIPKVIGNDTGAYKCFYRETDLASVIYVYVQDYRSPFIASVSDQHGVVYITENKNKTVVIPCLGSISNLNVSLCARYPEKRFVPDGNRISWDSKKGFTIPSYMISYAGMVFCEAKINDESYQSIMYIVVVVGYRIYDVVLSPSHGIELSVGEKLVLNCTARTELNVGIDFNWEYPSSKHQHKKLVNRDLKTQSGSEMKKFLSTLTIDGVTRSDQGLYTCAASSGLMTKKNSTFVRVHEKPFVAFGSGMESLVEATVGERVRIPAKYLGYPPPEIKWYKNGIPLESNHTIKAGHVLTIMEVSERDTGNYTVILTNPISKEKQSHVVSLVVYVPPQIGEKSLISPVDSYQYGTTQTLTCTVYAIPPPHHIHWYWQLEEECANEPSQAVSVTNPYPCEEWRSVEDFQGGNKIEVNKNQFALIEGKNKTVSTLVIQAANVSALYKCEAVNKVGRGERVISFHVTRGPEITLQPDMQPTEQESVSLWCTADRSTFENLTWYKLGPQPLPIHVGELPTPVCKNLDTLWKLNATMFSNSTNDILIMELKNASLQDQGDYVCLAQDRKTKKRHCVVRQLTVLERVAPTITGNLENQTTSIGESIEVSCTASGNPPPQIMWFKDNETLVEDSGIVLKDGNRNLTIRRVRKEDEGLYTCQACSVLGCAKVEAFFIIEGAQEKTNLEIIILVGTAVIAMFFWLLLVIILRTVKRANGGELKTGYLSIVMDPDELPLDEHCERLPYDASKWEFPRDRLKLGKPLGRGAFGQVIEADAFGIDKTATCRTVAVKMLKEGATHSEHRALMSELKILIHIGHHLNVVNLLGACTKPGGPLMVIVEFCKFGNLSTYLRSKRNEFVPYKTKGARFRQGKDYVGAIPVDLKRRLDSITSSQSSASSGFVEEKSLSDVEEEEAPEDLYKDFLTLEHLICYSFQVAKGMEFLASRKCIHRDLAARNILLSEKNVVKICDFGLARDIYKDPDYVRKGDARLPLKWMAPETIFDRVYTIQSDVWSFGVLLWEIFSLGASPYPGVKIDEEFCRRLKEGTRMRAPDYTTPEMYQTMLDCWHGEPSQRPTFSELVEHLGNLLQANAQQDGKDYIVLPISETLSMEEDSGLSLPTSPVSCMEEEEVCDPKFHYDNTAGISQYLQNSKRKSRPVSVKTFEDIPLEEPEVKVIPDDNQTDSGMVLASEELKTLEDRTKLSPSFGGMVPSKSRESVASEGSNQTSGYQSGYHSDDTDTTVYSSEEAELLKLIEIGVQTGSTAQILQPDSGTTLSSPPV

As to `O=C(O)c1cc(O)ccc1O` [GENTISIC ACID], the AC50 (in test [1]; in test [2]; at Acetylcholinesterase) was over 30 µM throughout.
Consider `CN(C)CC(c1ccc(O)cc1)C1(O)CCCCC1` (stereo not drawn) [DESVENLAFAXINE], for which the AC50 (in test [1]; in test [2]; on Acetylcholinesterase) was over 30 µM in each case.
For the compound `OCCN1C[C@H](O)[C@@H](O)[C@H](O)[C@H]1CO` [MIGLITOL], the AC50 (in test [1]; in test [2]; on Acetylcholinesterase) was over 30 µM each time.
As to `CO[C@H]1C[C@@H]2CC[C@@H](C)[C@@](O)(O2)C(=O)C(=O)N2CCCC[C@H]2C(=O)O[C@H]([C@H](C)C[C@@H]2CC[C@@H](O)[C@H](OC)C2)CC(=O)[C@H](C)/C=C(\C)[C@@H](O)[C@@H](OC)C(=O)[C@H](C)C[C@H](C)/C=C/C=C/C=C/1C` [SIROLIMUS], the AC50 (on B2 bradykinin receptor; in test [1]; in test [2]; in test [3]; at Acetylcholinesterase) was over 30 µM throughout.
`Cc1cn([C@H]2C=C[C@@H](CO)O2)c(=O)[nH]c1=O` [STAVUDINE]: the AC50 (on B2 bradykinin receptor; in test [1]; in test [2]; in test [3]; on Acetylcholinesterase) was over 30 µM throughout.
In the case of `C[C@]12CC[C@@H]3c4ccc(O)cc4CC[C@H]3[C@@H]1C[C@@H](O)[C@@H]2O` [ESTRIOL], the AC50 (in test [1]; in test [2]; at Acetylcholinesterase) was over 30 µM throughout.
For `CCCCCCOc1nsnc1C1=CCCN(C)C1` [XANOMELINE], the AC50 in test [1] is over 30 µM; in test [2], 1.39 µM; at Acetylcholinesterase it was 17.2 µM.
On the same counts, the results for `CC(C)(S)[C@@H](N)C(=O)O` [PENICILLAMINE] are over 30 µM, over 30 µM and over 30 µM.
On the same counts, the results for `CN(C)CCN1C(=O)c2ccccc2N(C)c2ccccc21` [DIBENZEPIN] are over 30 µM, 9.47 µM and over 30 µM.
On the same counts, the results for `O=C(CCNNC(=O)c1ccncc1)NCc1ccccc1` [NIALAMIDE] are over 30 µM, over 30 µM and over 30 µM.
`CC[N+]1(C)[C@@H]2CC(OC(=O)[C@H](CO)c3ccccc3)C[C@H]1[C@@H]1O[C@@H]12` (stereo partly drawn) [OXITROPIUM]: the AC50 (in test [1]; in test [2]; at Acetylcholinesterase) was over 30 µM in each case.
For `CC(C)Nc1ncccn1` [ISAXONINE], the concentration at half-maximal activity (AC50) (in test [1]; in test [2]; at Acetylcholinesterase) was over 30 µM throughout.
As for `CC(=O)N[C@@H]1[C@@H](O)[C@H](O)[C@@H](CO)O[C@H]1O` [N-ACETYLGLUCOSAMINE], the AC50 (in test [1]; in test [2]; at Acetylcholinesterase) was over 30 µM throughout.
Regarding `Cc1cn([C@H]2C[C@H](N=[N+]=[N-])[C@@H](CO)O2)c(=O)[nH]c1=O` [ZIDOVUDINE], the AC50 (at B2 bradykinin receptor; in test [1]; in test [2]; in test [3]; on Acetylcholinesterase) was over 30 µM each time.
On to `CS(=O)(=O)c1ccc(C2=C(c3ccccc3)C(=O)OC2)cc1` [ROFECOXIB], for which the AC50 (on B2 bradykinin receptor; in test [1]; in test [2]; in test [3]; on Acetylcholinesterase) was over 30 µM each time.
Take `CC(C)C[C@H]1C(=O)N2CCC[C@H]2[C@]2(O)O[C@](NC(=O)[C@@H]3C=C4c5cccc6[nH]c(Br)c(c56)C[C@H]4N(C)C3)(C(C)C)C(=O)N12` [BROMOCRIPTINE]: the half-maximal activity concentration (AC50) on Progesterone receptor was over 30 µM; on B2 bradykinin receptor, over 30 µM; in test [1], over 30 µM; in test [3], 0.844 µM; at Acetylcholinesterase it was 1.78 µM.
Turning to `COCc1c(C(C)C)nc(C(C)C)c(/C=C/[C@@H](O)C[C@@H](O)CC(=O)O)c1-c1ccc(F)cc1` [CERIVASTATIN], the AC50 (in test [1]; in test [2]; on Acetylcholinesterase) was over 30 µM each time.
With `CN(C)S(=O)(=O)c1ccc2c(c1)N(CCCN1CCC(CCO)CC1)c1ccccc1S2` [PIPOTIAZINE], the half-maximal activity concentration (AC50) in test [1] is over 30 µM; in test [2] it was 0.313 µM; at Acetylcholinesterase, over 30 µM.
`CC(=O)Nc1ccc(O)cc1` [ACETAMINOPHEN]: the AC50 (on Progesterone receptor; in test [1]; in test [2]; in test [3]; at Acetylcholinesterase) was over 30 µM in each case.
As for `Oc1c(Cl)cc(Cl)c2cccnc12` [CHLOROXINE], the AC50 (in test [1]; in test [2]; at Acetylcholinesterase) was over 30 µM throughout.
Turning to `N[C@H](C(=O)O)[C@H](O)c1ccc(O)c(O)c1` [DROXIDOPA], the AC50 (in test [1]; in test [2]; at Acetylcholinesterase) was over 30 µM each time.
For `Cc1cccc(Nc2ccccc2C(=O)O)c1C` [MEFENAMIC ACID], the AC50 on Progesterone receptor is over 10 µM; at B2 bradykinin receptor, over 10 µM; in test [1], over 30 µM; in test [2] it was over 30 µM; on Acetylcholinesterase it was over 30 µM.
Consider `C=C[C@H]1C[N@@]2CC[C@H]1C[C@H]2[C@H](O)c1ccnc2ccc(OC)cc12` [QUININE], for which the AC50 in test [1] is over 30 µM; in test [2], 5.45 µM; on Acetylcholinesterase, over 30 µM.
Turning to `CC(C)(C)NC[C@H](O)COc1ccccc1C1CCCC1` [PENBUTOLOL], the AC50 in test [1] is over 30 µM; in test [2], 0.966 µM; on Acetylcholinesterase, over 30 µM.
For `CCC1=C(C)CN(C(=O)NCCc2ccc(S(=O)(=O)NC(=O)N[C@H]3CC[C@H](C)CC3)cc2)C1=O` [GLIMEPIRIDE], the concentration at half-maximal activity (AC50) (in test [1]; in test [2]; on Acetylcholinesterase) was over 30 µM in each case.
As for `CN(C)[C@@H](c1cccc(O)c1)[C@H]1CCCC[C@H]1O` [CIRAMADOL], the AC50 in test [1] was 9.31 µM; in test [2], over 30 µM; at Acetylcholinesterase it was over 30 µM.
In the case of `COC(c1ccccc1)(c1ccccc1)[C@H](Oc1nc(C)cc(C)n1)C(=O)O` [AMBRISENTAN], the AC50 (in test [1]; in test [2]; at Acetylcholinesterase) was over 30 µM throughout.
`CCOC(=O)[C@H](CCc1ccccc1)N[C@@H](C)C(=O)N1[C@H](C(=O)O)C[C@H]2CCCC[C@@H]21` [TRANDOLAPRIL]: the concentration at half-maximal activity (AC50) (in test [1]; in test [2]; on Acetylcholinesterase) was over 30 µM each time.

For the origin of these results see ChEMBL document CHEMBL5291721, “A preclinical secondary pharmacology resource illuminates target-adverse drug reaction associations of marketed drugs” (Nat Commun, 2023).
